Reference: patent US7704986B2, “Vitamin D3 analogues for the prevention and treatment of bone disorders” (K.U. Leuven Research and Development, priority 2004, dated 2010)

Key:
vitamin D receptor (VDR) = biological target: T1, vitamin D receptor (VDR) (Sus scrofa, UniProt A3RGC1); assay: Affinity for vitamin D receptor: competition with [3H]1α,25(OH)2D3; assay type: binding; conditions: pig intestinal mucosa supernatant, 4° C. 20 hours; 1α,25(OH)2D3 = 100%
T1 construct: high speed supernatant from intestinal mucosa homogenates obtained from normal pigs; from tissue; host or cells: pig intestinal mucosa (high speed supernatant of homogenate)
T1 sequence (A3RGC1 1-427): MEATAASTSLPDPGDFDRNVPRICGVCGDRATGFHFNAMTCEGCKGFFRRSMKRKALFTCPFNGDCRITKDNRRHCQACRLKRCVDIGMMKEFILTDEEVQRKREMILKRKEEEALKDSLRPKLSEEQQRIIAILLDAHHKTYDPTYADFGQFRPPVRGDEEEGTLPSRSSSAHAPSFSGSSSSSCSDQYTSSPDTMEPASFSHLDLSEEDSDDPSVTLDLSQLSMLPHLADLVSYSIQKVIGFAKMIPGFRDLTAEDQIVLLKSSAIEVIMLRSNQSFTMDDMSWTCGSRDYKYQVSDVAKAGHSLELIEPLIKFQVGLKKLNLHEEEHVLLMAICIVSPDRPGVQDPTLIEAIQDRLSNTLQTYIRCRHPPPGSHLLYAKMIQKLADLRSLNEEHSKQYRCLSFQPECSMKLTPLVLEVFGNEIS
Procedure: The methods used herein to evaluate the binding properties of vitamin D analogues are state of the art techniques used for steroid hormone (including vitamin D) binding assays. […] Incubation was performed at 4° C. for 20 hours and phase separation was obtained by addition of dextran-coated charcoal.

[1] = biological target: T2, human vitamin D binding protein (hDBP) (Homo sapiens, UniProt P02774); assay: Affinity for human vitamin D binding protein; conditions: hDBP 0.18 μM, 4° C. 3 hours; 1,25(OH)2D3 = 100
T2 sequence (P02774 17-474): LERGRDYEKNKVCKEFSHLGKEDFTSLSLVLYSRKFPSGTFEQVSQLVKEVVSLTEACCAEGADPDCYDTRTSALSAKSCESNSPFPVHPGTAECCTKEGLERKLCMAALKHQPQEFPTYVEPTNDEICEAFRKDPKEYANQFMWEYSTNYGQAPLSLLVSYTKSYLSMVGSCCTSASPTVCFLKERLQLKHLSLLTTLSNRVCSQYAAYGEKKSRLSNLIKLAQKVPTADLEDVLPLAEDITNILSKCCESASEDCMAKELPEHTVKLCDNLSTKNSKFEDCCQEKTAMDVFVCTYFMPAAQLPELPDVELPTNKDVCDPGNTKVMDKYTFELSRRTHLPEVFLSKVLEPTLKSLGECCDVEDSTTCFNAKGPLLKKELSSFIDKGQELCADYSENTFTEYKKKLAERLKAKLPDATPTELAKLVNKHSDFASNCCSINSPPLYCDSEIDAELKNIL
Procedure: Binding of 1α,25(OH)2D3 analogues to hDBP was performed at 4° C. […] Phase separation was then obtained by the addition of 0.5 ml of cold dextran-coated charcoal.

NMRI mice = assay: In vivo activity: serum and femur calcium after 7 daily i.p. injections; conditions: for Serum calcium vs. control (%) / femur calcium vs. control (%): 7 days
Procedure: Eight weeks old, male NMRI mice were fed a vitamin D-replete diet (0.2% calcium, 1% phosphate, 2000 U vitamin D/kg; Hope Farms, Woerden, The Netherlands). Groups of six mice were intraperitoneally injected daily during 7 consecutive days with different doses of 1,25(OH)2D3 (0.2 and 0.4 μg/kg/day) or analogues. The control group was injected with vehicle (arachis oil). The average weight of each group of 6 mice was determined at the beginning and at the end of the experiment. The following parameters were evaluated: serum calcium and femur calcium. Serum calcium was measured by a microcolorimetric assay (Sigma, St. Louis, Mo.). Femurs were removed and femur calcium content was measured in HCl-dissolved bone ash (obtained by heating for 24 hours in an oven at 100° C.), using the same technique as for serum calcium. Student's t-tests were carried out to detect significant differences; p<0.05 was accepted as significant. […]

[2] = Table 6, dose 0.4 μg/kg/day, * in cell = p < 0.05
[3] = dose 0.2 μg/kg/d i.p., * in cell = P < 0.05
[4] = dose 0.4 μg/kg/d i.p., * in cell = P < 0.05

SMILES | VDR (relative affinity) (vitamin D receptor (VDR)) [%] | DBP (relative affinity) [1] [%] | Serum calcium vs. control (%) (NMRI mice; [3]) | femur calcium vs. control (%) (NMRI mice; [3]) | Serum calcium vs. control (%) (NMRI mice; [4]) | femur calcium vs. control (%) (NMRI mice; [4]) | other results
CC(C)[C@H](O)CC[C@H](C)[C@@]1(C)CC[C@@H](/C=C/C=C2C[C@@H](O)C[C@H](O)C2)C1(C)C (stereo in doubt) [example 19, (1R,3R)-5-{(E)-3-[(S)-3-((S)-4-hydroxy-1-(S)-methyl-5-methyl-hexyl)-2,2,3-trimethyl-cyclopentyl]-allylidene}-cyclohexane-1,3-diol] | 3 | 4 |  |  |  |  | Serum calcium vs. control (%) (NMRI mice; dose 5 μg/kg/d i.p.): 100%; femur calcium vs. control (%) (NMRI mice; dose 5 μg/kg/d i.p., * in cell = P < 0.05): 115* %
C=C1/C(=C\C=C2/CCC[C@]3(C)[C@@H]([C@H](C)CCCC(C)(C)O)CC[C@@H]23)C[C@@H](O)C[C@@H]1O [1,25(OH)2D3, Calcitriol, reference compound] |  |  | 121* % | 97% | 136* % | 94* % | Femur calcium versus control (%) (NMRI mice; Table 6, dose 0.2 μg/kg/day): 97%; Serum calcium versus control (%) (NMRI mice; Table 6, dose 0.2 μg/kg/day, * in cell = p < 0.05): 121* %; Femur calcium versus control (%) (NMRI mice; [2]): 94* %; Serum calcium versus control (%) (NMRI mice; [2]): 136* %
CCC(O)(CC)CCC[C@H](C)[C@@]1(C)CC[C@@H](/C=C/C=C2C[C@@H](O)C[C@H](O)C2)C1(C)C [(1R,3R)-5-((E)-3-((1S,3R)-3-((1S)-5-ethyl-5-hydroxy-1-methylheptyl)-2,2,3-trimethylcyclopentyl)-2-propenylidene)cyclohexane-1,3-diol] | 60 | <0.1 |  |  |  |  | 
C=C1/C(=C\C=C\[C@@H]2CC[C@](C)([C@H](C)CC#CC(C)(C)O)C2(C)C)C[C@@H](O)C[C@@H]1O [(1R,3S)-5-((Z,2E)-3-((1S,3R)-3-((1R)-5-hydroxy-1,5-dimethyl-3-hexynyl)-2,2,3-trimethylcyclopentyl)-2-propenylidene)-4-methylenecyclohexane-1,3-diol] | 60 | 0 |  |  |  |  | Serum calcium vs. control (%) (NMRI mice; dose 2 μg/kg/d i.p.): 105%; femur calcium vs. control (%) (NMRI mice; dose 2 μg/kg/d i.p., * in cell = P < 0.05): 113* %
C=C1/C(=C\C=C\[C@@H]2CC[C@](C)([C@H](C)CCCC(O)(C(F)(F)F)C(F)(F)F)C2(C)C)C[C@@H](O)C[C@@H]1O [(1R,3S)-5-((Z,2E)-3-((1S,3R)-3-((1R)-6,6,6-trifluoro-5-hydroxy-1-methyl-5-(trifluoromethyl)hexyl)-2,2,3-trimethylcyclopentyl)-2-propenylidene)-4-methylenecyclohexane-1,3-diol] | 30 | 40 |  |  | 98% | 114* % | 
C=C1/C(=C\C=C\[C@@H]2CC[C@](C)([C@H](C)CC#CC(O)(C(F)(F)F)C(F)(F)F)C2(C)C)C[C@@H](O)C[C@@H]1O [(1R,3S)-5-((Z,2E)-3-((1S,3R)-3-((1R)-6,6,6-trifluoro-5-hydroxy-1-methyl-5-trifluoromethyl-3-hexynyl)-2,2,3-trimethylcyclopentyl)-2-propenylidene)-4-methylenecyclohexane-1,3-diol] | 60 | 0 |  |  | 94% | 115* % | 
C=C1/C(=C\C=C\[C@@H]2CC[C@](C)([C@@H](C)CCCC(O)(C(F)(F)F)C(F)(F)F)C2(C)C)C[C@@H](O)C[C@@H]1O [(1R,3S)-5-((Z,2E)-3-((1S,3R)-3-((1S)-6,6,6-trifluoro-5-hydroxy-1-methyl-5-(trifluoromethyl)hexyl)-2,2,3-trimethylcyclopentyl)-2-propenylidene)-4-methylenecyclohexane-1,3-diol] | 60 | 6 |  |  |  |  | Serum calcium vs. control (%) (NMRI mice; dose 0.05 μg/kg/d i.p.): 106%; femur calcium vs. control (%) (NMRI mice; dose 0.05 μg/kg/d i.p., * in cell = P < 0.05): 112* %
C=C1/C(=C\C=C\[C@@H]2CC[C@](C)([C@@H](C)CC#CC(O)(C(F)(F)F)C(F)(F)F)C2(C)C)C[C@@H](O)C[C@@H]1O [(1R,3S)-5-((Z,2E)-3-((1S,3R)-3-((1S)-6,6,6-trifluoro-5-hydroxy-1-methyl-5-trifluoromethyl-3-hexynyl)-2,2,3-trimethylcyclopentyl)-2-propenylidene)-4-methylenecyclohexane-1,3-diol] | 75 | 2 | 103% | 117* % |  |  | 
C=C1/C(=C\C=C\[C@@H]2CC[C@](C)([C@@H](C)CC[C@@H](O)C(C)C)C2(C)C)C[C@@H](O)C[C@@H]1O [example 20, (1R,3S)-5-((Z,2E)-3-((1S,3R)-3-((1S,4R)-4-hydroxy-1,5-dimethylhexyl)-2,2,3-trimethylcyclopentyl)-2-propenylidene)-4-methylenecyclohexane-1,3-diol] | 9 | 4 |  |  |  |  | Serum calcium vs. control (%) (NMRI mice; dose 10 μg/kg/d i.p.): 99%; femur calcium vs. control (%) (NMRI mice; dose 10 μg/kg/d i.p., * in cell = P < 0.05): 111* %
C=C1/C(=C\C=C\[C@@H]2CC[C@](C)([C@@H](C)CC[C@H](O)C(C)C)C2(C)C)C[C@@H](O)C[C@@H]1O [example 24, (1R,3S)-5-((Z,2E)-3-((1S,3R)-3-((1S,4S)-4-hydroxy-1,5-dimethylhexyl)-2,2,3-trimethylcyclopentyl)-2-propenylidene)-4-methylenecyclohexane-1,3-diol] | 20 | 4 | 98% | 112* % |  |  | 
